# Measurements taken from patent US6358885B1, “Substituted phenylheterocyclic herbicides” (Mississippi State University, priority 1992, dated 2002).
# How the values were obtained:
# Test in all cases: Test B preemergence/postemergence greenhouse plant response rating 0 to 10
# [1] = test system: rice; type: in vivo, Oryza sativa; conditions: 0 to 10 scale
# Outline: (§1)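 Postemergence treatment of plants two to eighteen cm tall ran alongside preemergence treatment of planted seed, each using compound in a non-phytotoxic solvent.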
# [2] = test system: lambsquarters; type: in vivo, Chenopodium album; conditions: 0 to 10 scale
# Outline: as §1
# [3] = test system: purple nutsedge; type: in vivo, Cyperus rotundus; conditions: 0 to 10 scale
# Outline: as §1
# [4] = test system: soybean; type: in vivo, Glycine max; conditions: 0 to 10 scale
# Outline: as §1
# [5] = test system: rape; type: in vivo, Brassica napus; conditions: 0 to 10 scale
# Outline: as §1
# [6] = test system: crabgrass; type: in vivo, Digitaria spp.; conditions: for Plant response rating, Crabgrass: 0 to 10 scale
# Outline: as §1
# [7] = test system: blackgrass; type: in vivo, Alopecurus myosuroides; conditions: for Plant response rating, Blackgrass: 0 to 10 scale
# Outline: as §1
# [8] = test system: barley; type: in vivo, Hordeum vulgare; conditions: for Plant response rating, Barley: 0 to 10 scale
# Outline: as §1
# [9] = test system: cocklebur; type: in vivo, Xanthium pensylvanicum; conditions: for Plant response rating, Cocklebur: 0 to 10 scale
# Outline: as §1
# [10] = test system: bedstraw; type: in vivo, Galium aparine; conditions: for Plant response rating, Bedstraw: 0 to 10 scale
# Outline: as §1
# [11] = test system: sugar beet; type: in vivo, Beta vulgaris; conditions: 0 to 10 scale
# Outline: as §1
structure (smiles),measurement,setting,value
Fc1cc(Cl)c(OC2CCCC2)cc1-c1nn2c(c1Cl)CCCC2 [Compound 24],"Plant response rating, Rice","[1]; POSTEMERGENCE, Rate 50 g/ha",5
same,"Plant response rating, Rice","[1]; POSTEMERGENCE, Rate 200 g/ha",5
same,"Plant response rating, Rice","[1]; PREEMERGENCE, Rate 50 g/ha",0
same,"Plant response rating, Rice","[1]; Rate 200 g/ha, PREEMERGENCE",0
same,"Plant response rating, Lambsquarter","[2]; POSTEMERGENCE, Rate 50 g/ha",9
same,"Plant response rating, Lambsquarter","[2]; POSTEMERGENCE, Rate 200 g/ha",10
same,"Plant response rating, Lambsquarter","[2]; PREEMERGENCE, Rate 50 g/ha",9
same,"Plant response rating, Lambsquarter","[2]; Rate 200 g/ha, PREEMERGENCE",10
same,"Plant response rating, Nutsedge","[3]; POSTEMERGENCE, Rate 50 g/ha",3
same,"Plant response rating, Nutsedge","[3]; POSTEMERGENCE, Rate 200 g/ha",4
same,"Plant response rating, Nutsedge","[3]; PREEMERGENCE, Rate 50 g/ha",0
same,"Plant response rating, Nutsedge","[3]; Rate 200 g/ha, PREEMERGENCE",0
same,"Plant response rating, Soybean","[4]; POSTEMERGENCE, Rate 50 g/ha",6
same,"Plant response rating, Soybean","[4]; POSTEMERGENCE, Rate 200 g/ha",8
same,"Plant response rating, Soybean","[4]; PREEMERGENCE, Rate 50 g/ha",0
same,"Plant response rating, Soybean","[4]; Rate 200 g/ha, PREEMERGENCE",2
same,"Plant response rating, Rape","[5]; POSTEMERGENCE, Rate 50 g/ha",5
same,"Plant response rating, Rape","[5]; POSTEMERGENCE, Rate 200 g/ha",7
same,"Plant response rating, Rape","[5]; PREEMERGENCE, Rate 50 g/ha",2
same,"Plant response rating, Rape","[5]; Rate 200 g/ha, PREEMERGENCE",8
same,"Plant response rating (0 to 10 scale), Crabgrass","[6]; POSTEMERGENCE, Rate 50 g/ha",5
same,"Plant response rating, Crabgrass","[6]; POSTEMERGENCE, Rate 200 g/ha",5
same,"Plant response rating, Crabgrass","[6]; PREEMERGENCE, Rate 50 g/ha",0
same,"Plant response rating, Crabgrass","[6]; Rate 200 g/ha, PREEMERGENCE",7
same,"Plant response rating (0 to 10 scale), Blackgrass","[7]; POSTEMERGENCE, Rate 50 g/ha",2
same,"Plant response rating, Blackgrass","[7]; POSTEMERGENCE, Rate 200 g/ha",6
same,"Plant response rating, Blackgrass","[7]; PREEMERGENCE, Rate 50 g/ha",2
same,"Plant response rating, Blackgrass","[7]; Rate 200 g/ha, PREEMERGENCE",8
same,"Plant response rating (0 to 10 scale), Barley","[8]; POSTEMERGENCE, Rate 50 g/ha",4
same,"Plant response rating, Barley","[8]; POSTEMERGENCE, Rate 200 g/ha",4
same,"Plant response rating, Barley","[8]; PREEMERGENCE, Rate 50 g/ha",0
same,"Plant response rating, Barley","[8]; Rate 200 g/ha, PREEMERGENCE",0
same,"Plant response rating (0 to 10 scale), Cocklebur","[9]; POSTEMERGENCE, Rate 50 g/ha",8
same,"Plant response rating, Cocklebur","[9]; POSTEMERGENCE, Rate 200 g/ha",9
same,"Plant response rating, Cocklebur","[9]; PREEMERGENCE, Rate 50 g/ha",0
same,"Plant response rating, Cocklebur","[9]; Rate 200 g/ha, PREEMERGENCE",1
same,"Plant response rating (0 to 10 scale), Bedstraw","[10]; POSTEMERGENCE, Rate 50 g/ha",6
same,"Plant response rating, Bedstraw","[10]; POSTEMERGENCE, Rate 200 g/ha",7
same,"Plant response rating, Bedstraw","[10]; PREEMERGENCE, Rate 50 g/ha",3
same,"Plant response rating, Bedstraw","[10]; Rate 200 g/ha, PREEMERGENCE",5
same,"Plant response rating, Sugar beet","[11]; POSTEMERGENCE, Rate 50 g/ha",10
same,"Plant response rating, Sugar beet","[11]; POSTEMERGENCE, Rate 200 g/ha",10
same,"Plant response rating, Sugar beet","[11]; PREEMERGENCE, Rate 50 g/ha",9
same,"Plant response rating, Sugar beet","[11]; Rate 200 g/ha, PREEMERGENCE",9
CCS(=O)(=O)Oc1cc(-c2nn3c(c2Cl)CCCC3)c(F)cc1Cl [Compound 25],"Plant response rating, Rice","[1]; POSTEMERGENCE, Rate 50 g/ha",4
same,"Plant response rating, Rice","[1]; POSTEMERGENCE, Rate 200 g/ha",9
same,"Plant response rating, Rice","[1]; PREEMERGENCE, Rate 50 g/ha",0
same,"Plant response rating, Rice","[1]; Rate 200 g/ha, PREEMERGENCE",0
same,"Plant response rating, Lambsquarter","[2]; POSTEMERGENCE, Rate 50 g/ha",9
same,"Plant response rating, Lambsquarter","[2]; POSTEMERGENCE, Rate 200 g/ha",10
same,"Plant response rating, Lambsquarter","[2]; PREEMERGENCE, Rate 50 g/ha",9
same,"Plant response rating, Lambsquarter","[2]; Rate 200 g/ha, PREEMERGENCE",10
same,"Plant response rating, Nutsedge","[3]; POSTEMERGENCE, Rate 50 g/ha",2
same,"Plant response rating, Nutsedge","[3]; POSTEMERGENCE, Rate 200 g/ha",8
same,"Plant response rating, Nutsedge","[3]; PREEMERGENCE, Rate 50 g/ha",0
same,"Plant response rating, Nutsedge","[3]; Rate 200 g/ha, PREEMERGENCE",0
same,"Plant response rating, Soybean","[4]; POSTEMERGENCE, Rate 50 g/ha",8
same,"Plant response rating, Soybean","[4]; POSTEMERGENCE, Rate 200 g/ha",4
same,"Plant response rating, Soybean","[4]; PREEMERGENCE, Rate 50 g/ha",0
same,"Plant response rating, Soybean","[4]; Rate 200 g/ha, PREEMERGENCE",0
same,"Plant response rating, Rape","[5]; POSTEMERGENCE, Rate 50 g/ha",10
same,"Plant response rating, Rape","[5]; POSTEMERGENCE, Rate 200 g/ha",10
same,"Plant response rating, Rape","[5]; PREEMERGENCE, Rate 50 g/ha",0
same,"Plant response rating, Rape","[5]; Rate 200 g/ha, PREEMERGENCE",9
same,"Plant response rating (0 to 10 scale), Crabgrass","[6]; POSTEMERGENCE, Rate 50 g/ha",3
same,"Plant response rating, Crabgrass","[6]; POSTEMERGENCE, Rate 200 g/ha",2
same,"Plant response rating, Crabgrass","[6]; PREEMERGENCE, Rate 50 g/ha",5
same,"Plant response rating, Crabgrass","[6]; Rate 200 g/ha, PREEMERGENCE",7
same,"Plant response rating (0 to 10 scale), Blackgrass","[7]; POSTEMERGENCE, Rate 50 g/ha",2
same,"Plant response rating, Blackgrass","[7]; POSTEMERGENCE, Rate 200 g/ha",2
same,"Plant response rating, Blackgrass","[7]; PREEMERGENCE, Rate 50 g/ha",0
same,"Plant response rating, Blackgrass","[7]; Rate 200 g/ha, PREEMERGENCE",3
same,"Plant response rating (0 to 10 scale), Barley","[8]; POSTEMERGENCE, Rate 50 g/ha",4
same,"Plant response rating, Barley","[8]; POSTEMERGENCE, Rate 200 g/ha",5
same,"Plant response rating, Barley","[8]; PREEMERGENCE, Rate 50 g/ha",0
same,"Plant response rating, Barley","[8]; Rate 200 g/ha, PREEMERGENCE",0
same,"Plant response rating (0 to 10 scale), Cocklebur","[9]; POSTEMERGENCE, Rate 50 g/ha",7
same,"Plant response rating, Cocklebur","[9]; POSTEMERGENCE, Rate 200 g/ha",8
same,"Plant response rating, Cocklebur","[9]; PREEMERGENCE, Rate 50 g/ha",0
same,"Plant response rating, Cocklebur","[9]; Rate 200 g/ha, PREEMERGENCE",1
same,"Plant response rating (0 to 10 scale), Bedstraw","[10]; POSTEMERGENCE, Rate 50 g/ha",9
same,"Plant response rating, Bedstraw","[10]; POSTEMERGENCE, Rate 200 g/ha",9
same,"Plant response rating, Bedstraw","[10]; PREEMERGENCE, Rate 50 g/ha",5
same,"Plant response rating, Bedstraw","[10]; Rate 200 g/ha, PREEMERGENCE",10
same,"Plant response rating, Sugar beet","[11]; POSTEMERGENCE, Rate 50 g/ha",10
same,"Plant response rating, Sugar beet","[11]; POSTEMERGENCE, Rate 200 g/ha",10
same,"Plant response rating, Sugar beet","[11]; PREEMERGENCE, Rate 50 g/ha",7
same,"Plant response rating, Sugar beet","[11]; Rate 200 g/ha, PREEMERGENCE",10
